SMILES strings stand for the structures.

The results in this text go back to patent publication US20180057507A1, “INHIBITORS OF DUAL LEUCINE ZIPPER (DLK) KINASE FOR THE TREATMENT OF DISEASE” (Board of Regents, The University of Texas System, priority 2016, published 2018).

The assay concerns the target T1, human DLK (Homo sapiens, UniProt Q12852).
T1 sequence (Q12852 1-859): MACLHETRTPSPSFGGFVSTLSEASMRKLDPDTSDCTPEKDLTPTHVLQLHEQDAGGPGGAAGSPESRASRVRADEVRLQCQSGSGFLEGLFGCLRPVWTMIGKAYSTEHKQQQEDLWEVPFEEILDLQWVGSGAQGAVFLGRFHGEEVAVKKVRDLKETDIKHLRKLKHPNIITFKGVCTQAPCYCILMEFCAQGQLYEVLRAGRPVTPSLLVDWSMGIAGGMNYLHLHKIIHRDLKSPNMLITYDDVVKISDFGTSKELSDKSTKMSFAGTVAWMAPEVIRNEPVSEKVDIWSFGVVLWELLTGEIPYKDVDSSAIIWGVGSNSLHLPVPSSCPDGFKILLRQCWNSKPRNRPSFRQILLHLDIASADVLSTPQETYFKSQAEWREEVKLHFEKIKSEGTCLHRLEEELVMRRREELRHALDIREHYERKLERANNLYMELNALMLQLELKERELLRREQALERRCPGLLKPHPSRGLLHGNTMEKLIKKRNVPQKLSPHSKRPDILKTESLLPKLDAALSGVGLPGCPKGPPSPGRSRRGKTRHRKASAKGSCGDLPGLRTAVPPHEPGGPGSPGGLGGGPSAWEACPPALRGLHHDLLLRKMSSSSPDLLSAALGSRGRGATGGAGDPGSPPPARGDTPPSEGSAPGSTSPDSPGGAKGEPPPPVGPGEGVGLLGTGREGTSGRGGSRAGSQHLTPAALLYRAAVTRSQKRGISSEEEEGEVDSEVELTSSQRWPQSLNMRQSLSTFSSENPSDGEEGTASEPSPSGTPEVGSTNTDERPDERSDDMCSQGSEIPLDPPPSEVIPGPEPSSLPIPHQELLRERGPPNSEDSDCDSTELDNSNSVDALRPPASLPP
Put plainly: DLK Kd Determinations (KINOMEscan KdELECT, DiscoveRx). The arrangement: full length of human DLK (amino acids 1-859); host or cells: transiently transfected HEK293 cells; unpurified extract. As to conditions: fusion protein of full length human DLK (amino acids 1-859) and NFkB DNA binding domain; qPCR readout; duplicate. In a few lines:
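Competition binding of full-length human DLK (aa 1-859)-NFkB DBD fusion, DNA-tagged, from HEK293 extracts against an immobilized ligand; 1 h at room temperature, 0.9% DMSO. Bead-bound kinase was quantified by qPCR. Kd came from an 11-point 3-fold series (top 30,000 nM), in duplicate, with Hill slope fixed at −1.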
For orientation: Quantitative PCR measures a nucleic acid by following its amplification.
Broadly, the Kd is the equilibrium constant for the complex coming apart. `Nc1ncc(-c2cn([C@H]3[C@@H]4CN(CC(F)F)C[C@@H]43)c(CC3CC3)n2)cc1OC(F)(F)F` [Example 98, 5-(2-(cyclopropylmethyl)-1-((1R,5S,6s)-3-(2,2-difluoroethyl)-3-azabicyclo[3.1.0]hexan-6-yl)-1H-imidazol-4-yl)-3-(trifluoromethoxy)pyridin-2-amine] displayed a Kd of 93 nM.
The result for `CC(C)c1nc(-c2cnc(N)c(C(F)(F)F)c2)cn1C1CCN(C2COC2)C1` (centres unmarked) [Example 36, 5-(2-isopropyl-1-(1-(oxetan-3-yl)pyrrolidin-3-yl)-1H-imidazol-4-yl)-3-(trifluoromethyl)pyridin-2-amine] reads 350 nM.
The result for `CC(C)c1nc(-c2cnc(N)c(C(F)(F)F)c2)cn1C1CN(C2COC2)C1` [Example 27, 5-(2-isopropyl-1-(1-(oxetan-3-yl)azetidin-3-yl)-1H-imidazol-4-yl)-3-(trifluoromethyl)pyridin-2-amine] reads 270 nM.
The result for `CC(C)c1nc(-c2cnc(N)c(C(F)(F)F)c2)cn1[C@H]1[C@@H]2CC(N3CCOCC3)C[C@@H]21` (mixture of isomers) [Example 3, 5-(2-isopropyl-1-((1R,5S,6r)-3-morpholinobicyclo[3.1.0]hexan-6-yl)-1H-imidazol-4-yl)-3-(trifluoromethyl)pyridin-2-amine] reads 51 nM; that for `COCCN1C[C@@H]2[C@H](C1)[C@H]2n1cc(-c2cnc(N)c(C(F)(F)F)c2)nc1C(C)C` [Example 15, 5-(2-isopropyl-1-((1R,5S,6s)-3-(2-methoxyethyl)-3-azabicyclo[3.1.0]hexan-6-yl)-1H-imidazol-4-yl)-3-(trifluoromethyl)pyridin-2-amine], 210 nM; that for `CC(C)c1nc(-c2cnc(N)c(C(F)(F)F)c2)cn1Cc1cccnc1` [Example 32, 5-(2-isopropyl-1-(pyridin-3-ylmethyl)-1H-imidazol-4-yl)-3-(trifluoromethyl)pyridin-2-amine], 940 nM.
Compound `CC(C)c1nc(-c2cnc(N)c(C(F)(F)F)c2)cn1Cc1ccccn1` [Example 30, 5-(2-isopropyl-1-(pyridin-2-ylmethyl)-1H-imidazol-4-yl)-3-(trifluoromethyl)pyridin-2-amine] showed a Kd of 1500 nM.
The result for `Nc1ncc(-c2cn([C@H]3[C@@H]4CN(CC(F)(F)F)C[C@@H]43)c(CC3CC3)n2)cc1C(F)(F)F` [Example 79, 5-(2-(cyclopropylmethyl)-1-((1R,5S,6s)-3-(2,2,2-trifluoroethyl)-3-azabicyclo[3.1.0]hexan-6-yl)-1H-imidazol-4-yl)-3-(trifluoromethyl)pyridin-2-amine] reads 180 nM; that for `Nc1ncc(-c2cn([C@H]3[C@@H]4CN(CC(F)(F)F)C[C@@H]43)c(CC3CC3)n2)cc1OC(F)(F)F` [Example 99, 5-(2-(cyclopropylmethyl)-1-((1R,5S,6s)-3-(2,2,2-trifluoroethyl)-3-azabicyclo[3.1.0]hexan-6-yl)-1H-imidazol-4-yl)-3-(trifluoromethoxy)pyridin-2-amine], 340 nM.
The same measure for `Nc1ncc(-c2cn([C@H]3[C@@H]4CNC[C@@H]43)c(CC3CC3)n2)cc1OC(F)F` [Example 86, 5-(1-((1R,5S,6s)-3-azabicyclo[3.1.0]hexan-6-yl)-2-(cyclopropylmethyl)-1H-imidazol-4-yl)-3-(difluoromethoxy)pyridin-2-amine]: 110 nM; for `CC1OCCn2cc(-c3cnc(N)c(C(F)(F)F)c3)nc21` (centres unmarked) [Example 5, 5-(8-methyl-6,8-dihydro-5H-imidazo[2,1-c][1,4]oxazin-2-yl)-3-(trifluoromethyl)pyridin-2-amine]: 3300 nM; for `CC(C)c1nc(-c2cnc(N)c(C(F)(F)F)c2)cn1[C@H]1C[C@H](F)C1` [Example 25, 5-(1-((1r,3r)-3-fluorocyclobutyl)-2-isopropyl-1H-imidazol-4-yl)-3-(trifluoromethyl)pyridin-2-amine]: 200 nM.
The same measure for `Nc1ncc(-c2cn([C@H]3[C@@H]4CN(CC(F)F)C[C@@H]43)c(C3CC3)n2)cc1C(F)(F)F` [Example 75, 5-(2-cyclopropyl-1-((1R,5S,6s)-3-(2,2-difluoroethyl)-3-azabicyclo[3.1.0]hexan-6-yl)-1H-imidazol-4-yl)-3-(trifluoromethyl)pyridin-2-amine]: 56 nM.
The compound `Nc1ncc(-c2cn(C3CC3)c(CC(F)(F)F)n2)cc1C(F)(F)F` [Example 46, 5-(1-cyclopropyl-2-(2,2,2-trifluoroethyl)-1H-imidazol-4-yl)-3-(trifluoromethyl)pyridin-2-amine] had a Kd of 280 nM. This Kd lies about 5-fold higher than the previous one.
The result for `CC(C)c1nc(-c2cnc(N)c(C(F)(F)F)c2)cn1C1COC1` [Example 29, 5-(2-isopropyl-1-(oxetan-3-yl)-1H-imidazol-4-yl)-3-(trifluoromethyl)pyridin-2-amine] reads 1000 nM.
The same measure for `Nc1ncc(-c2cn(C3CC3)c(C3CC3)n2)cc1C(F)(F)F` [Example 9, 5-(1,2-dicyclopropyl-1H-imidazol-4-yl)-3-(trifluoromethyl)pyridin-2-amine]: 240 nM; for `Nc1ncc(-c2cn([C@H]3[C@@H]4CN(CCF)C[C@@H]43)c(C3CC3)n2)cc1OC(F)F` [Example 106, 5-(2-cyclopropyl-1-((1R,5S,6s)-3-(2-fluoroethyl)-3-azabicyclo[3.1.0]hexan-6-yl)-1H-imidazol-4-yl)-3-(difluoromethoxy)pyridin-2-amine]: 55 nM; for `CC(=O)N1C[C@@H]2[C@H](C1)[C@H]2n1cc(-c2cnc(N)c(OC(F)F)c2)nc1CC1CC1` [Example 115, 1-((1R,5S,6s)-6-(4-(6-amino-5-(difluoromethoxy)pyridin-3-yl)-2-(cyclopropylmethyl)-1H-imidazol-1-yl)-3-azabicyclo[3.1.0]hexan-3-yl)ethan-1-one]: 200 nM.
The same measure for `CC(=O)N1C[C@@H]2[C@H](C1)[C@H]2n1cc(-c2cnc(N)c(OC(F)(F)F)c2)nc1C1CC1` [Example 54, 1-((1R,5S)-6-(4-(6-amino-5-(trifluoromethoxy)pyridin-3-yl)-2-cyclopropyl-1H-imidazol-1-yl)-3-azabicyclo[3.1.0]hexan-3-yl)ethan-1-one]: 110 nM; for `CC(C)c1nc(-c2cnc(N)c(C(F)(F)F)c2)cn1C1CC(F)(F)C1` [Example 26, 5-(1-(3,3-difluorocyclobutyl)-2-isopropyl-1H-imidazol-4-yl)-3-(trifluoromethyl)pyridin-2-amine]: 400 nM; for `CC(C)c1nc(-c2cnc(N)c(C(F)(F)F)c2)cn1C1CCC(O)CC1` (centres unmarked) [Example 33, 4-(4-(6-amino-5-(trifluoromethyl)pyridin-3-yl)-2-isopropyl-1H-imidazol-1-yl)cyclohexan-1-ol]: 130 nM.
Turning to `Nc1ncc(-c2cn3c(n2)COCC3)cc1C(F)(F)F` [Example 10, 5-(5,6-dihydro-8H-imidazo[2,1-c][1,4]oxazin-2-yl)-3-(trifluoromethyl)pyridin-2-amine], binding was put at a Kd of 840 nM. This Kd lies about 6.5-fold higher than the previous one.
The result for `COCCN1C[C@@H]2[C@H](C1)[C@H]2n1cc(-c2cnc(N)c(OC(F)(F)F)c2)nc1CC1CC1` [Example 100, 5-(2-(cyclopropylmethyl)-1-((1R,5S,6s)-3-(2-methoxyethyl)-3-azabicyclo[3.1.0]hexan-6-yl)-1H-imidazol-4-yl)-3-(trifluoromethoxy)pyridin-2-amine] reads 66 nM.
